# Legend:
# [1] = Cmax in conventional Wistar rat at 400 mg/kg, po administered as single dose by HPLC-DAD analysis; assay type: ADME, organism-based; parameters: dose 400 mg/kg, route oral; details: in vivo
# [2] = Drug excretion in streptozotocin-induced diabetic Wistar rat urine assessed as norathyriol metabolite level at 400 mg/kg, po administered as single dose by HPLC-DAD analysis; assay type: ADME, organism-based; parameters: dose 400 mg/kg, route oral; details: in vivo
# [3] = test system: Plasma; experiment: Drug metabolism in streptozotocin-induced diabetic Wistar rat plasma assessed as norathyriol metabolite formation at 400 mg/kg, po administered as single dose by HPLC-DAD analysis; assay type: ADME, organism-based; parameters: dose 400 mg/kg, route oral; details: in vivo
# [4] = Elimination half life in conventional Wistar rat at 400 mg/kg, po administered as single dose by HPLC-DAD analysis; assay type: ADME, organism-based; parameters: dose 400 mg/kg, route oral; details: in vivo, read-out: beta t1/2 (converted)
# [5] = test system: Plasma; experiment: Drug uptake in pseudo-germ free Wistar rat plasma at 400 mg/kg, po administered as single dose by HPLC-DAD analysis; assay type: ADME, organism-based; parameters: dose 400 mg/kg, route oral; details: in vivo
# [6] = MRT(0 to infinity) in conventional Wistar rat at 400 mg/kg, po administered as single dose by HPLC-DAD analysis; assay type: ADME, organism-based; parameters: dose 400 mg/kg, route oral; details: in vivo
# [7] = test system: Plasma; experiment: Drug uptake in conventional Wistar rat plasma at 400 mg/kg, po administered as single dose by HPLC-DAD analysis; assay type: ADME, organism-based; parameters: dose 400 mg/kg, route oral; details: in vivo
# [8] = test system: Plasma; experiment: Drug metabolism in conventional Wistar rat plasma assessed as norathyriol metabolite formation at 400 mg/kg, po administered as single dose by HPLC-DAD analysis; assay type: ADME, organism-based; parameters: dose 400 mg/kg, route oral; details: in vivo
# [9] = Drug excretion in streptozotocin-induced diabetic Wistar rat feces assessed as 1,7-dihydroxyxanthone metabolite level at 400 mg/kg, po administered as single dose by HPLC-DAD analysis; assay type: ADME, organism-based; parameters: dose 400 mg/kg, route oral; details: in vivo
# [10] = Drug excretion in conventional Wistar rat feces assessed as norathyriol metabolite level at 400 mg/kg, po administered as single dose by HPLC-DAD analysis; assay type: ADME, organism-based; parameters: dose 400 mg/kg, route oral; details: in vivo
# [11] = Tmax in pseudo-germ free Wistar rat at 400 mg/kg, po administered as single dose by HPLC-DAD analysis; assay type: ADME, organism-based; parameters: dose 400 mg/kg, route oral; details: in vivo
# [12] = Drug excretion in pseudo-germ free Wistar rat urine assessed as norathyriol metabolite level at 400 mg/kg, po administered as single dose by HPLC-DAD analysis; assay type: ADME, organism-based; parameters: dose 400 mg/kg, route oral; details: in vivo
# [13] = Apparent oral clearance in pseudo-germ free Wistar rat at 400 mg/kg, po administered as single dose by HPLC-DAD analysis; assay type: ADME, organism-based; parameters: dose 400 mg/kg, route oral; details: in vivo
# [14] = Drug excretion in pseudo-germ free Wistar rat urine assessed as unchanged drug level at 400 mg/kg, po administered as single dose by HPLC-DAD analysis; assay type: ADME, organism-based; parameters: dose 400 mg/kg, route oral; details: in vivo
# [15] = test system: Plasma; experiment: Drug metabolism in Wistar rat plasma assessed as retention time by HPLC-DAD analysis; assay type: ADME, cell-free
# [16] = test system: Plasma; experiment: Drug metabolism in conventional Wistar rat plasma assessed as 1,7-dihydroxyxanthone metabolite formation at 400 mg/kg, po administered as single dose by HPLC-DAD analysis; assay type: ADME, organism-based; parameters: dose 400 mg/kg, route oral; details: in vivo
# [17] = Drug excretion in streptozotocin-induced diabetic Wistar rat urine assessed as 1,7-dihydroxyxanthone metabolite level at 400 mg/kg, po administered as single dose by HPLC-DAD analysis; assay type: ADME, organism-based; parameters: dose 400 mg/kg, route oral; details: in vivo
# [18] = Drug excretion in pseudo-germ free Wistar rat feces assessed as norathyriol metabolite level at 400 mg/kg, po administered as single dose by HPLC-DAD analysis; assay type: ADME, organism-based; parameters: dose 400 mg/kg, route oral; details: in vivo
# [19] = AUC(0 to t) in pseudo-germ free Wistar rat at 400 mg/kg, po administered as single dose by HPLC-DAD analysis; assay type: ADME, organism-based; parameters: dose 400 mg/kg, route oral; details: plasma
# [20] = Apparent oral clearance in streptozotocin-induced diabetic Wistar rat at 400 mg/kg, po administered as single dose by HPLC-DAD analysis; assay type: ADME, organism-based; parameters: dose 400 mg/kg, route oral; details: in vivo
# [21] = Drug excretion in conventional Wistar rat urine assessed as norathyriol metabolite level at 400 mg/kg, po administered as single dose by HPLC-DAD analysis; assay type: ADME, organism-based; parameters: dose 400 mg/kg, route oral; details: in vivo
# [22] = Tmax in conventional Wistar rat at 400 mg/kg, po administered as single dose by HPLC-DAD analysis; assay type: ADME, organism-based; parameters: dose 400 mg/kg, route oral; details: in vivo
# [23] = Apparent oral clearance in conventional Wistar rat at 400 mg/kg, po administered as single dose by HPLC-DAD analysis; assay type: ADME, organism-based; parameters: dose 400 mg/kg, route oral; details: in vivo
# [24] = test system: Plasma; experiment: Drug recovery in Wistar rat plasma at 500 ng/ml by HPLC-DAD analysis; assay type: ADME, cell-free
# [25] = Cmax in pseudo-germ free Wistar rat at 400 mg/kg, po administered as single dose by HPLC-DAD analysis; assay type: ADME, organism-based; parameters: dose 400 mg/kg, route oral; details: in vivo
# [26] = Elimination half life in streptozotocin-induced diabetic Wistar rat at 400 mg/kg, po administered as single dose by HPLC-DAD analysis; assay type: ADME, organism-based; parameters: dose 400 mg/kg, route oral; details: in vivo, read-out: beta t1/2 (converted)
# [27] = species on record: Rattus norvegicus; experiment: Drug retention time in Wistar rat by HPLC-DAD analysis; assay type: ADME, organism-based
# [28] = AUC(0 to t) in conventional Wistar rat at 400 mg/kg, po administered as single dose by HPLC-DAD analysis; assay type: ADME, organism-based; parameters: dose 400 mg/kg, route oral; details: plasma
# [29] = MRT(0 to t) in streptozotocin-induced diabetic Wistar rat at 400 mg/kg, po administered as single dose by HPLC-DAD analysis; assay type: ADME, organism-based; parameters: dose 400 mg/kg, route oral; details: in vivo
# [30] = Drug excretion in pseudo-germ free Wistar rat feces assessed as 1,7-dihydroxyxanthone metabolite level at 400 mg/kg, po administered as single dose by HPLC-DAD analysis; assay type: ADME, organism-based; parameters: dose 400 mg/kg, route oral; details: in vivo
structure (smiles),measurement,setting,value
O=c1c2cc(O)c(O)cc2oc2cc(O)c([C@@H]3O[C@H](CO)[C@@H](O)[C@H](O)[C@H]3O)c(O)c12 [MANGIFERIN],Cmax,[1],715 ng/mL
same,Drug excretion,[2],metabolite_detected
same,Drug metabolism,[3],metabolite_not_detected
same,half-life,[4],2.47 h
same,Drug uptake,[5],Active
same,MRT inf,[6],7.77 h
same,Drug uptake,[7],Active
same,Drug metabolism,[8],metabolite_not_detected
same,Drug excretion,[9],metabolite_not_detected
same,Drug excretion,[10],metabolite_detected
same,Tmax,[11],2.89 h
same,Drug excretion,[12],metabolite_not_detected
same,CL/F,[13],1690 mL/min/kg
same,Drug excretion,[14],metabolite_detected
same,Retention_time,[15],5.5 min
same,Drug metabolism,[16],metabolite_not_detected
same,Drug excretion,[17],metabolite_detected
same,Drug excretion,[18],metabolite_not_detected
same,AUC(0-t),[19],4320 ng·h/mL
same,CL/F,[20],772 mL/min/kg
same,Drug excretion,[21],metabolite_detected
same,Tmax,[22],0.73 h
same,CL/F,[23],2030 mL/min/kg
same,Drug recovery,[24],75.5%
same,Cmax,[25],452 ng/mL
same,half-life,[26],2.6 h
same,Retention_time,[27],15.2 min
same,AUC(0-t),[28],3800 ng·h/mL
same,MRT last,[29],5.4 h
same,Drug excretion,[30],metabolite_not_detected

# From ChEMBL document CHEMBL3525933 (Drug Metab Dispos, 2012)
